Calls of active or inactive are those of the source.
How the values were obtained:
[1] = target: Epstein-Barr nuclear antigen 1 (Epstein-Barr virus (strain B95-8) (HHV-4) (Human herpesvirus 4), UniProt P03211); assay: inhibition of EBV nuclear antigen 1 DNA binding – biochemical, fluorescence polarization, 1536-well, dose response (AID 2381); parameters: species or system human gammaherpesvirus 4;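 note: fluorescence polarization of a Cy5 DNA probe bound by EBNA-1 protein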
[2] = target: Lytic switch protein BZLF1 (Epstein-Barr virus (strain B95-8) (HHV-4) (Human herpesvirus 4), UniProt P03206); assay: inhibition of BZLF1 ZTA DNA binding – biochemical, fluorescence polarization, Epstein-Barr virus, 1536-well, counter-screen for EBNA-1 inhibitor project, dose response (AID 2377); parameters: species or system human gammaherpesvirus 4;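 note: fluorescence polarization of Cy5-labelled ZRE DNA probe bound by purified Zta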
[3] = target: T1, Neuropeptide Y receptor type 1 (Homo sapiens, UniProt P25929); assay type: functional;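 note: HEK293 cells with a CNG channel challenged with NPY then isoproterenol; potency as antagonist that reverses NPY suppression of cAMP signal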
T1 sequence (P25929 whole entry): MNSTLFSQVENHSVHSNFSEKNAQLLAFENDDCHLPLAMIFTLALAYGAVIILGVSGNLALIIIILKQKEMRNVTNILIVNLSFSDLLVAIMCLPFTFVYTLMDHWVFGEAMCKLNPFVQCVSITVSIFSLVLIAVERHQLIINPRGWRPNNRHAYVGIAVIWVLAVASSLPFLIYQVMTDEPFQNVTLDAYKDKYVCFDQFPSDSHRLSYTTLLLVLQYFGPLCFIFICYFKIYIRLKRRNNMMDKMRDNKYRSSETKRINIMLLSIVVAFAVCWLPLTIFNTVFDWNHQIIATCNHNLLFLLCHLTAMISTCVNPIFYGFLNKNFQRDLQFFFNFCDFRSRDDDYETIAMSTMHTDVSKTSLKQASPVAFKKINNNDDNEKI

[4] = Trypanosoma cruzi growth suppression in host cells – NIH3T3 host cells, beta-gal luminescence, confirmation (AID 2044); assay type: functional, cell-based;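 note: intracellular parasites grown in NIH/3T3 mouse fibroblasts as host cells; luminescent beta-galactosidase reporter signal from transgenic T. cruzi replicating inside host cells; inhibitors lower the luminescence signal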
[5] = target: T2, Neuropeptide Y receptor type 2 (Homo sapiens, UniProt P49146); assay type: functional, cell-based;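 note: HEK293 cells expressing the receptor and a CNG channel; stimulus was NPY near EC95 followed by isoproterenol to raise cAMP; antagonist potency measured as restoring cAMP signal that NPY suppresses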
T2 sequence (P49146 whole entry): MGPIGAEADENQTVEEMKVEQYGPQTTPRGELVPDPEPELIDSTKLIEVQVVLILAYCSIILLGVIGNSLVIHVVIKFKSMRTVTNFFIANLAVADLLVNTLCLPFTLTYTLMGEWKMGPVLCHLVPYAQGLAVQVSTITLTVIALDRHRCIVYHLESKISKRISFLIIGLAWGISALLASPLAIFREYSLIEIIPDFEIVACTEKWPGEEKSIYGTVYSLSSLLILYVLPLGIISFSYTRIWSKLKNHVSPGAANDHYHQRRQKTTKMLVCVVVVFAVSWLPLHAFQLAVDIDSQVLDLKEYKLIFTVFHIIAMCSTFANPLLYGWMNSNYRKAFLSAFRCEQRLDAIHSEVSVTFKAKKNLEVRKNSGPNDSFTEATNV

[6] = target: T3, Calpain-2 catalytic subunit (Sus scrofa, UniProt P43367); assay: m-calpain protease blockers, concentration series – biochemical, fluorogenic peptide substrate, dose response (AID 1420); assay type: functional
T3 sequence (P43367 whole entry): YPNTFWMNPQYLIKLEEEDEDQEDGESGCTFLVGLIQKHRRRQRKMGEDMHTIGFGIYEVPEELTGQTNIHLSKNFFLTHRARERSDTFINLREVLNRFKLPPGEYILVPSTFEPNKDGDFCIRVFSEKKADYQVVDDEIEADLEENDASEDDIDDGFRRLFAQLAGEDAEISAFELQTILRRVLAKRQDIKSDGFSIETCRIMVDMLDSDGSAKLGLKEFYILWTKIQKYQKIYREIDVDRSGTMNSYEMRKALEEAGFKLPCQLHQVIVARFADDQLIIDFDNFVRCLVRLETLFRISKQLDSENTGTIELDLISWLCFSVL

[7] = NIH3T3 cell viability loss – ATP luminescence, mouse fibroblasts, counter-screen, dose response (AID 2010); assay type: functional, cell-based;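 note: cells exposed to compound for about 90 hours before reading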
NADPH oxidase 1 = target: T4, NADPH oxidase 1 (Homo sapiens, UniProt Q9Y5S8); assay type: functional, cell-based;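 note: Cell-based assay with luminescence read-out, IC50 derived from inhibitor dose-response curves; intracellular ROS from endogenous NOX1 in intact HT29 colon cancer cells; potency of inhibitors that lower the ROS luminescence signal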
T4 sequence (Q9Y5S8 whole entry): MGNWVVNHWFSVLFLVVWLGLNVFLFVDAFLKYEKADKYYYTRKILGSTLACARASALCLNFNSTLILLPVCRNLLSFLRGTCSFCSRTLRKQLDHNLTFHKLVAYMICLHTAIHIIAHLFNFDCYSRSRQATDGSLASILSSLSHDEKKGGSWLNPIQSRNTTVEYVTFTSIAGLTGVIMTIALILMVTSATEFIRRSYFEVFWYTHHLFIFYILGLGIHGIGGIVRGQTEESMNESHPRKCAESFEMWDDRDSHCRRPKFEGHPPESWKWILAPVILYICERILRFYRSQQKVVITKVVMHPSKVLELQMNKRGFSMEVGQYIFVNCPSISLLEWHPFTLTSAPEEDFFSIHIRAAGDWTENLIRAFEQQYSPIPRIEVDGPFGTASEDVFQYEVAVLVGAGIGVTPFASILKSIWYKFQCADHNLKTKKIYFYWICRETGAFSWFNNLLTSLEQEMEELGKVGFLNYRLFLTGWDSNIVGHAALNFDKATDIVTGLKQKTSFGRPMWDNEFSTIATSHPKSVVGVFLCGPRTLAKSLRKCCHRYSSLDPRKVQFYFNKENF

[8] = luciferase reporter signal suppression in cells – H4 neuroglioma cells, luminescence, dose response (AID 1990); assay type: functional, cell-based
[9] = A Cell Based Secondary Assay To Explore Cytotoxicity of Compounds that Sensitize Mycobacterium Tuberculosis to Beta-Lactam Antibiotics.; assay type: functional
[10] = Luminescence Cell-Based Dose Response HTS to Identify Inhibitors of 5'UTR Stem-Loop Driven Prion Protein mRNA Translation in H4 Neuroglioblastoma Cells. [Related pubchem assays: 1827 (Project Summary), 1813 (Primary HTS)]; assay type: functional
[11] = alpha-synuclein stem-loop luciferase translation blockers – H4 neuroglioma cells, luminescence, confirmation (AID 1988); assay type: functional, cell-based
[12] = Luminescence Cell-Based Dose Response to Identify Activators of 5'UTR Stem-Loop Driven Prion Protein mRNA Translation in H4-C Neuroglioblastoma Cells. [Related pubchem assays: 1829 (Project Summary), 1814 (Primary HTS)]; assay type: functional
[13] = Luminescence Cell-Based Dose Confirmation HTS to Identify Activators of 5'UTR Stem-Loop Driven Alpha-Synuclein mRNA Translation in H4 Neuroglioblastoma Cells. [Related pubchem assays: 1829 (Project Summary), 1814 (Primary HTS)]; assay type: functional
[14] = Luminescence Cell-Based Dose Response HTS to Identify Activators of Luciferase Translation or Activity in H4 […] Cells. [Related pubchem assays: 1829 (Project Summary), 1814 (Primary HTS)]; assay type: functional
H4 = assay: Luminescence Cell-Based Dose Response HTS to Identify Activators of 5'UTR Stem-Loop Driven Prion Protein mRNA Translation in H4 Neuroglioblastoma Cells. [Related pubchem assays: 1829 (Project Summary), 1814 (Primary HTS)]; assay type: functional; settings: Homo sapiens
[15] = Luminescence Cell-Based Dose Response to Identify Activators of Luciferase Translation or Activity in H4-C Neuroglioblastoma Cells. [Related pubchem assays: 1829 (Project Summary), 1814 (Primary HTS)]; assay type: functional
[16] = Luminescence Cell-Based Dose Confirmation to Identify Activators of 5'UTR Stem-Loop Driven Alpha-Synuclein mRNA Translation in H4 Neuroglioblastoma Cells. [Related pubchem assays: 1829 (Project Summary), 1814 (Primary HTS)]; assay type: functional
[17] = target: Luciferin 4-monooxygenase (Photinus pyralis, UniProt P08659); assay: Counter Screen for Luciferase-based Assay Positives. [Related pubchem assays: 620, 618, 411 ]
HT-1080 = assay: HT1080 cell viability loss – fluorescence readout (AID 620); assay type: functional, cell-based; settings: Homo sapiens
[18] = target: T5, Microphthalmia-associated transcription factor (Homo sapiens, UniProt O75030); assay: reducers of TRPM1 reporter luminescence, concentration series – cell-based, SK-MEL-5, cherry-picked, set 3, MITF inhibitor project, dose response (AID 493073); assay type: functional;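 note: SK-MEL-5 melanoma cells with luciferase driven by the MITF target TRPM1 promoter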
T5 sequence (O75030 whole entry): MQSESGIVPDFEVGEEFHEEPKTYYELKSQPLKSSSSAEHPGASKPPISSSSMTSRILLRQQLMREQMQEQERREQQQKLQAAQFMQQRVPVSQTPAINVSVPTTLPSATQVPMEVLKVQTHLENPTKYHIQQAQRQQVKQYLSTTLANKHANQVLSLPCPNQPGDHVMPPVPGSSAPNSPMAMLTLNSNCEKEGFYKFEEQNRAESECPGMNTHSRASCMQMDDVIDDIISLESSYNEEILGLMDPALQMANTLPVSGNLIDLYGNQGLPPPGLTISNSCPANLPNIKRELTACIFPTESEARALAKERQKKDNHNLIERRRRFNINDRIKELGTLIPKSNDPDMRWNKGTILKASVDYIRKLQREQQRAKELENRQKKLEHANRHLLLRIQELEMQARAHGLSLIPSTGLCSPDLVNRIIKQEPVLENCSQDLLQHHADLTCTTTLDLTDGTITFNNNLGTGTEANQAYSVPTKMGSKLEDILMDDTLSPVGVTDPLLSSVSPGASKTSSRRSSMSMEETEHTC

[19] = viability of uninfected HEp-2 cells – cell-based, HTS, cytotoxicity control for RSV inhibitor project, dose response (AID 2410); assay type: functional; settings: human respiratory syncytial virus
[20] = Luminescence-based dose response cell-based high throughput screening assay for cytotoxic compounds using the IEC-6 intestinal epithelial cell line. [Related pubchem assays: 1858 (Summary AID.), 1825 (Counterscreen.), 1907 (Confirmation screen.)]; assay type: functional
[21] = HEK-293T cell viability reduction – luminescence, B-cell screen hits, cytotoxicity control for BCR NF-kB inhibitor project, dose response (AID 489021); assay type: functional, cell-based;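 note: HEK-293T cells carrying an NF-kB luciferase reporter; cells exposed to compound for about 14 hours before viability readout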
Cytochrome P450 3A4 = Cytochrome P450 3A4 (Homo sapiens, UniProt P08684);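 note: CYP3A4 tested as one member of a cytochrome P450 panel screen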
Cytochrome P450 2C9 = Cytochrome P450 2C9 (Homo sapiens, UniProt P11712)
Sequence of Cytochrome P450 2C9 (P11712 whole entry): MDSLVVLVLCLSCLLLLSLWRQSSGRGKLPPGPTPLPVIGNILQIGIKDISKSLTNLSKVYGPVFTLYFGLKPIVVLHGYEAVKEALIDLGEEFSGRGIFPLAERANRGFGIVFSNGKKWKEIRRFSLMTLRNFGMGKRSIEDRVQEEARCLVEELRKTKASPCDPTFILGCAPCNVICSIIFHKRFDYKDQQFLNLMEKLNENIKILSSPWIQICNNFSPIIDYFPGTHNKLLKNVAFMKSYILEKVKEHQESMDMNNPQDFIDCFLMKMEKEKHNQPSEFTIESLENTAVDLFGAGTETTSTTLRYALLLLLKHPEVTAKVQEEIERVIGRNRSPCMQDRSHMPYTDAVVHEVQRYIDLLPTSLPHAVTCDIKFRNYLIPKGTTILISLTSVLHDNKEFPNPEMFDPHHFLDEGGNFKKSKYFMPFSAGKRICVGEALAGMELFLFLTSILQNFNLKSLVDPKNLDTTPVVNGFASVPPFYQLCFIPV

Sequence of Epstein-Barr nuclear antigen 1 (P03211 whole entry): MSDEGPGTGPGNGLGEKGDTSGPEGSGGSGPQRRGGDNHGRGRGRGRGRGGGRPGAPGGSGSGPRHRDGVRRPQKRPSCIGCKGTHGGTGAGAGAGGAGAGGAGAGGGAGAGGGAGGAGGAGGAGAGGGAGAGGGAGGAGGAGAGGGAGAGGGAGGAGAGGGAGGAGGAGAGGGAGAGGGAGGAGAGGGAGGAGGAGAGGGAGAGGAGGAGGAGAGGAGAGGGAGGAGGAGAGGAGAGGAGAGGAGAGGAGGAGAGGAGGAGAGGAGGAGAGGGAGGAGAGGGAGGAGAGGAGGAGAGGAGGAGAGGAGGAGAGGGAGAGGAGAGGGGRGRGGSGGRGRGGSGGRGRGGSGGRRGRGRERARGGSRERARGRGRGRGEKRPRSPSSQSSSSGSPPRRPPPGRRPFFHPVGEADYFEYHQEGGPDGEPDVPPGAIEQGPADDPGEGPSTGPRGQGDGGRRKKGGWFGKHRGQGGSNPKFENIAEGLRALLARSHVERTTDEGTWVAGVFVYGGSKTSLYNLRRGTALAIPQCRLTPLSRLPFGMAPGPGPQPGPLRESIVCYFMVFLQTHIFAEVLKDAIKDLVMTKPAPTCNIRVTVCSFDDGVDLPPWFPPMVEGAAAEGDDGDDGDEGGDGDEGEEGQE
Sequence of Lytic switch protein BZLF1 (P03206 whole entry): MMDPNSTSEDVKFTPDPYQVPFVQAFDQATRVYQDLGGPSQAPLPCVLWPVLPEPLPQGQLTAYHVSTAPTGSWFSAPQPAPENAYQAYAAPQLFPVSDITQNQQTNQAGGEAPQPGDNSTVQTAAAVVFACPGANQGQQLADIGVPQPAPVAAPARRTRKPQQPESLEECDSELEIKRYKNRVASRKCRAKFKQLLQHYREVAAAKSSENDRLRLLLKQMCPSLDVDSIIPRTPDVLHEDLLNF
Sequence of Luciferin 4-monooxygenase (P08659 whole entry): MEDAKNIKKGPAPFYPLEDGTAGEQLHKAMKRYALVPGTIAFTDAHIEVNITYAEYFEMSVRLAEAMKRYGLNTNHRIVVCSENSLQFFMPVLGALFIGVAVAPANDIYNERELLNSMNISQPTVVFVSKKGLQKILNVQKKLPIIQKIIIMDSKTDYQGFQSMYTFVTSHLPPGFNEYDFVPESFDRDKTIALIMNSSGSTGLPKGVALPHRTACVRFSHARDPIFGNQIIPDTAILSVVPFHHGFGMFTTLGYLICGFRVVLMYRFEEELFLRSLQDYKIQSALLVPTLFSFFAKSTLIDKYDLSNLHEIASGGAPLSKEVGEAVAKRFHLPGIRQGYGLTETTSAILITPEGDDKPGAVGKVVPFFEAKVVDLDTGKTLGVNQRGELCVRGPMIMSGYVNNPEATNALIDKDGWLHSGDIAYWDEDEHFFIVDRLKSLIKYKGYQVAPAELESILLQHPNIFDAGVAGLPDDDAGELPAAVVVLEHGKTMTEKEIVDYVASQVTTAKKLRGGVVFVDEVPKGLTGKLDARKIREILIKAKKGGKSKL
Sequence of Cytochrome P450 3A4 (P08684 whole entry): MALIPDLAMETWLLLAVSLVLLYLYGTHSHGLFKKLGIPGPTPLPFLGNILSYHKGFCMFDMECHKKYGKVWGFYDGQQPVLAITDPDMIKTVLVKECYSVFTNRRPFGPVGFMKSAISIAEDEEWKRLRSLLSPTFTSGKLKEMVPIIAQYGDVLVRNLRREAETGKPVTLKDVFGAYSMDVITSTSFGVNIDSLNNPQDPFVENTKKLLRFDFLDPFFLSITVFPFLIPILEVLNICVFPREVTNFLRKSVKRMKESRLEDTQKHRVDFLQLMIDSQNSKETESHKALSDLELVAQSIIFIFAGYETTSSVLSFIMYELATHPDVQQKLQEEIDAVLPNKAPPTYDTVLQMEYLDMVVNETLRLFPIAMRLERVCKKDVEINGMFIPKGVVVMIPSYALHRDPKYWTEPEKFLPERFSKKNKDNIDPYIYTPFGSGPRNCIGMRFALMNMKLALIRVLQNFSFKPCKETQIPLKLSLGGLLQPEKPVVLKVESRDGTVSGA

For `N#Cc1ccccc1OCC(=O)Nc1c(C(=O)C2CC2)oc2ccccc12`, the IC50 [1] was 11 µM (not active) and the IC50 [2] was > 111 µM (not active).

With `O=P(CCCCCCCCCP(=O)(c1ccccc1)c1ccccc1)(c1ccccc1)c1ccccc1` the IC50 [3] was 10.4 µM (not active), the EC50 [4] was 1.29 µM (active) and the IC50 [5] was 1.65 µM (active). For the same compound, the IC50 [6] was 12 µM (not active) and the EC50 [7] was > 60 µM (not active).

With `COc1ccc2c(c1)Sc1ccc(Cl)cc1N2` the IC50 (NADPH oxidase 1) was 0.177 µM (active).

With `CC(C)CCSc1nc(N2CCOCC2)c2c(c1C#N)CC(C)(C)OC2` the EC50 [8] was 16.4 µM (active), the CC50 [9] was > 40 µM (active) and the EC50 [10] was > 120 µM (not active). The EC50 [11] was 31.3 µM (active), the EC50 [4] was 1.3 µM (active) and the EC50 [7] was > 60 µM (not active).

For `Cc1ccc2nc3c(O)n(Cc4ccco4)cnc-3c2c1`, the IC50 [1] was > 148 µM (not active) and the IC50 [2] was > 111 µM (not active).

For `Cc1ccc(CNC(=O)c2ccc(Cn3cc(-c4ccc(C)cc4)nc3-c3ccncc3)cc2)cc1`, the EC50 [12] was > 12 µM (not active), the EC50 [13] was < 0.1 µM (active) and the EC50 [14] was < 0.1 µM (active). For the same compound, the EC50 (H4) was 1.33 µM (active), the EC50 [15] was 0.656 µM (active) and the EC50 [16] was 1.12 µM (active).

For `C=C(NNc1c(Cl)c(Cl)nc(C(=O)O)c1Cl)c1ccc(N2CCOCC2)cc1`, the IC50 (NADPH oxidase 1) was > 17 µM (not active).

For `O=C1c2ccccc2S(=O)(=O)N1Cc1nc2ccccc2s1`, the EC50 [8] was 7.48 µM (active), the EC50 [17] was 7.63 µM (active) and the EC50 [10] was 7.02 µM (active). For the same compound, the EC50 [11] was 4.21 µM (active), the EC50 (HT-1080) was > 50 µM (not active) and the AC50 [18] was 2.7 µM (active).

In the case of `O=C(Nc1cccc(Cn2cccn2)c1)c1cc2c(s1)CCCC2`, the EC50 [12] is reported as > 12 µM (not active), the EC50 [14] is reported as < 0.1 µM (active) and the EC50 (H4) is reported as 10.9 µM (active). For the same compound, the EC50 [15] was 0.853 µM (active) and the EC50 [16] was 0.651 µM (active).

With `C(=N\Nc1nc(Nc2ccccc2)nc(N2CCOCC2)n1)/c1c[nH]c2ccccc12` the CC50 [19] was 28.8 µM (active), the EC50 [4] was < 0.1 µM (active) and the IC50 [20] was 0.244 µM (active). The EC50 [7] was 0.536 µM (active), the IC50 [21] was 28.5 µM (inactive) and the AC50 (Cytochrome P450 3A4) was 15.8 µM (inconclusive). For the same compound, the AC50 (Cytochrome P450 2C9) was 17.8 µM (inconclusive) and the EC50 (cells) was 0.018 µM (active).

Source: ChEMBL document CHEMBL1201862, “PubChem BioAssay data set” (2004)
